Reference: article PMC11403612, “Preparation and Preclinical Characterization of a Simple Ester for Dual Exogenous Supply of Lactate and Beta-hydroxybutyrate” (Journal of Agricultural and Food Chemistry, 2024)

Columns and labels:
[1] = Short-term pharmacokinetics of LaKe in rats (BHB and lactate levels); type: in vivo, Sprague–Dawley rats; conditions: 4.5 g/kg oral
Experimental: (§1) Male Sprague–Dawley rats (300–350g, Taconic, Ry, Denmark) were kept for acclimatization at a constant temperature of 23 °C with a 12 h light-dark cycle and with unlimited access to food and water. All animal handling was in accordance with national guidelines in Denmark and the guidelines from the Directive 2010/63/EU of the European Parliament on the protection of animals used for scientific purposes, and all experiments conformed to Danish Law (Act. No. 1306 of 23/11/2007). The experimental protocol was approved by the Danish Animal Expectorate (2018-15-0201-01475).
The rats were randomly selected to receive either LaKe (n = 8) or placebo (n = 8).
Rats were anesthetized in an induction chamber with 8% Sevoflurane (Sevorane, AbbVIE A/S, Copenhagen, Denmark) mixed with oxygen saturated atmospheric air (flow: 2.0 L/min). Upon achieved anesthesia, the rats were intubated and connected to a mechanical ventilator (Ugo Basile 7025 rodent ventilator, Comerio, Varese, Italy) with an adjusted flow of 1.0L/min with 3.5% Sevoflurane. Body temperature was kept at a constant of 37 ± 1 °C with a temperature probe (UNO, Zevenaar, Holland). A PTFE-coated flexible orogastric tube (Fuchigami, Japan) was placed, and the rat was left for stabilization for 15 min. […]
Short term pharmacokinetics of LaKe in rats – Detailed protocols for LC-MS/MS and FFA analyses BHB quantification by LC-MS/MS […]

[2] = system: plasma free fatty acids (FFA); assay: Plasma free fatty acids after oral LaKe in rats; type: in vivo, Sprague–Dawley rats; conditions: 4.5 g/kg oral
Experimental: as §1
The rats were randomly selected to receive either LaKe (n = 8) or placebo (n = 8). […]
Concentrations of non-esterified free fatty acids (FFA) were measured using a NEFA-HR(2) kit (Wako, Chemicals Gmbh, Germany). Absorbance was measured by spectrometry (PHERAstar FS, BMG LABTECH, […]
Quantification of N-L-lactoyl phenylalanine (Lac-Phe) by LC-MS/MS […]
Pure calibrant samples were prepared from an authentic standard compound (N-L-lactoyl phenylalanine), using the plasma sample preparation method at concentrations equivalent to […] in the original sample. The lower limit of quantification for N-L-lactoyl phenylalanine (Lac-Phe) quantification was estimated to 10 nM. […]

CC(O)CCOC(=O)C(C)O (stereo not shown) [LaKe, 3-hydroxybutyl 2-hydroxypropanoate]
BHB levels at 120 min [1]: remained elevated | lactate levels at 120 min [1]: largely back at the baseline level | maximum suppression of FFA levels ([2]; 75 min time point, compared to vehicle): > 40% | change in plasma free fatty acids compared to vehicle control ([2]; from 15 min until 105 min): decrease
